# Assay results: article PMC10535741, “Styrylpyridinium Derivatives for Fluorescent Cell Imaging” (Pharmaceuticals, 2023)
# Values joined by “and” are separate entries in the source; they are usually repeats but may differ in a detail not shown here. Equal values may be shown once. Read-outs that look alike come from different tables or passages of the source.
# What was measured:
# [1] = test system: MH-22A (mouse hepatocarcinoma); assay: MTT cytotoxicity assay, MH-22A; assay type: cell-based; details: for IC50: Mus musculus, read-out: IC50 (µg/mL) MH-22A
# Protocol: (§1) The evaluation of the in vitro cytotoxicity (IC50, half maximal inhibitory concentration) of the abovementioned compounds and their structural derivatives was assessed using the standard colorimetric 3-(4,5-dimethylthiazol-2-yl)-2,5-diphenyltetrazolium bromide (MTT) assay on two monolayer tumour cell lines, namely HT-1080 (human connective tissue fibrosarcoma) and MH-22A (mouse hepatocarcinoma). Additionally, the impact of the compound on non-cancerous “normal” cells—mouse fibroblasts (NIH3T3)—was estimated in order to measure the basal toxicity (LD50, median lethal dose). The obtained results were used for investigation of the structure–activity relationships and exploration of the effect of substituents on cellular response and toxicity. The estimated LD50 gives information regarding the compound properties and could potentially be used to select promising compounds by providing a starting dose for in vivo experiments.
# (§2) The HT-1080 (human connective tissue fibrosarcoma, ATCC® CCL-121™), MH-22A (mouse hepatocarcinoma, ECACC Cat. No. 96121721), A-549 (human lung carcinoma, ATCC® CCL-185™), NIH3T3 (Swiss Albino mouse embryo fibroblast, ECACC Cat. No. 93061524), Hek293 (human embryonic kidney, ATCC® CRL-1573™), BHK-21 (Syrian hamster kidney, ATCC® CCL-10™), A-431 (human epidermoid carcinoma, ATCC® CRL-1555™), Saos-2 (human osteosarcoma, ATCC® HTB-85™), HeLa (human epitheloid cervix carcinoma, ATCC® CCL-2™), U937 (human myeloid leukaemia, ATCC® CRL-1593.2™), C6 (rat glioma, ATCC® CCL-107™), and B16-F10 (murine melanoma, ATCC® CRL-6475™) cell lines were obtained from the American Type Culture Collection (ATCC) and European Collection of Authenticated Cell Cultures (ECACC).
# (§3) HT-1080, MH-22A, A-549, NIH3T3, BHK-21, A-431, HeLa, and B16-F10 cells were cultured in Dulbecco’s Modified Eagle’s Medium (DMEM) with 2 mM glutamine and 10% foetal bovine serum (FBS). Hek293 cells were cultured in Eagle’s Minimum Essential Medium with 10% foetal bovine serum. U937 cells were cultured in RPMI-1640 Medium with 2 mM glutamine and 10% foetal bovine serum. C6 cells were cultured in Ham’s F12 Medium with 2 mM glutamine and 10% foetal bovine serum. Saos-2 cells were cultured in McCoy’s 5a Medium with 2 mM glutamine and 10% foetal bovine serum. The cells were incubated at 37 °C with 5% CO2, 95% air, and complete humidity. Once ~90% confluence was reached, they were detached using 0.05% trypsin/EDTA and counted. The cells were plated at optimally determined densities for the logarithmic phase of growth. These cells were then suspended at a concentration of 4000 cells/well for HT-1080, MH-22A, A-549, NIH3T3, BHK-21, A-431, HeLa, B16-F10, Hek293, and Saos-2 cells and a concentration of 9000 cells/well for U937, C6, Hek293, and GM08402 cells and added onto a 96-well plate. For background absorption, some wells remained cell free, i.e., as a blank control. Cells were incubated for 72 h at 37 °C and 5% CO2 where they were exposed to a media containing serial dilutions of the investigated compounds (n = 3). Cell viability was measured using the 3-(4,5-dimethylthiazol-2-yl)-2,5-diphenyl-tetrazolium bromide (MTT) assay. In brief, after incubating with compounds, the culture medium was removed and fresh medium with 0.2 mg/mL MTT was added to each well of the plate. After incubation (3 h, 37 °C, 5% CO2), the medium with MTT solution was removed and replaced with 200 µL DMSO and 25 µL Sorenson’s glycine buffer (glycine 0.1 M, NaCl 0.1 M, pH: 10.5 with 0.1 M NaOH). The plate was shaken for 15 min at room temperature and the optical density (OD) of the wells was determined using a multichannel spectrophotometer (Thermo Scientific Multiskan EX) at 540 nm. The quantity of the control cells was taken in calculations as 100%. The IC50 value was calculated using the program Graph Pad Prism® 3.0.
# [2] = test system: HT-1080 (human connective tissue fibrosarcoma); assay: MTT cytotoxicity assay, HT-1080; assay type: cell-based; details: for IC50: Homo sapiens, read-out: IC50 (µg/mL) HT-1080
# Protocol: as §1, §2, §3
# [3] = Excitation/emission fluorescence spectra; assay type: physicochemical; details: for fluor. max. λ, nm / excitation λ, nm: DMSO solution; for excitation λ, nm: excitation giving maximum fluorescence intensity; for Stokes' shift, nm: DMSO
# Protocol: The resonance structures of compounds 6d,e (Figure 2a) show a possibly intramolecular charge transfer between the julolidine moiety and the pyridinium unit. The normalised fluorescence spectra of the tested compounds 6a–e and 7a,b in DMSO solution (Figure 2c) and the fluorescence spectra of compound 6e in various media (Figure 2d) were measured using a spectrophotometer multiplate reader (Infinite M1000). The UV/Vis spectra in DMSO solution of compounds 6a–g (Figure 2b) were reordered with a UV/Vis spectrophotometer, and the fluorescence spectra of compound 6e in EtOH–glycerol mixtures (Figure 2e) were collected with a Spectrofluorometer FS5.
# According to the calculations, the excitation occurs at 542 nm and the emission at 765 nm. The obtained theoretical calculation data are in good agreement with the experimental data, where the excitation occurs at 530 nm and the emission at 760 nm (Table 3).
# We have also tested whether the characteristics of compound 6e depended upon the viscosity of its surrounding environment. […] It was underlined that water media reduced the fluorescence quantum yields and the lifetime of organic fluorophores by up to threefold. […] In pure glycerol, the maximum value of fluorescence was detected at 645 nm. As the amount of glycerol decreased, the fluorescence intensity of the sample decreased as well. The second fluorescence maximum at 720 nm was observed when the amount of ethanol had reached approximately 50% in the composition.
# A concentration of 10 mM stock solution of compounds 6 or 7 was prepared by dissolving the compounds in DMSO. Working solutions were prepared by diluting the 10 mM stock solution of compounds with different solvents to reach the final concentration for the samples: DMSO (compound concentration 0.1 mM); for compound 6e: in glycerol (concentration 0.01 mM), in water (concentration 0.5 mM), in 0.1 M HCl (concentration 0.5 mM), in 0.1 M NaOH (concentration 0.5 mM), or in 1% DMSO/99% water (concentration […]). The fluorescence spectra were measured using a spectrophotometer multiplate reader (Tecan Infinite M1000; Tecan Austria GmbH, Salzburg, Austria). For excitation/emission fluorescence spectra measurements, the following measurement parameters were applied: excitation wavelength from 260 nm to 690 nm with a 10 nm sampling interval and emission wavelength from 300 nm to 840 nm with a 10 nm sampling interval. The fluorescence spectra of compound 6e (concentration 5 mM) in EtOH–glycerol mixtures were measured with an Edinburgh Instruments FS5 Spectrofluorometer (Edinburgh Instruments Ltd., Kirkton Campus, UK). The data were analysed using Microsoft Excel software version 2308.
Compound,"IC50 ([1]; 72 h treatment, MTT) [µg/mL]","IC50 ([2]; HT-1080, 72 h treatment, MTT) [µg/mL]","fluor. max. λ, nm [3]","excitation λ, nm [3] [nm]",also measured
"CCCCCCCCCCCC[n+]1ccc(C=Cc2cc(OC)c(OC)c(OC)c2)cc1.[Br-] [Compound 6a, 4-(3,4,5-trimethoxystyryl)-N-dodecylpyridinium bromide]",0.45 ± 0.08,0.22 ± 0.06,580 nm,380,"times more toxic than 6b in MH-22A ([1]; 6a versus 6b): 2.4 times; times lower cytotoxicity of 6a compared with 6d, MH-22A ([1]; ratio of IC50 values): 8.5 times"
CCCCCCCCCCCCCCCC[n+]1ccc(C=Cc2cc(OC)c(OC)c(OC)c2)cc1.[Br-] [Compound 6b],,,580 nm,380,"IC50 (µg/mL) MH-22A ([1]; 72 h treatment, MTT): 1.08 ± 0.06 µg/mL; IC50 (µg/mL) HT-1080 ([2]; 72 h treatment, MTT): 0.18 ± 0.02 µg/mL"
"CCCCCCCCCCCCCCCC[n+]1ccc(C=CC=Cc2ccc(OC)cc2)cc1.[Br-] [Compound 6c, 1-hexadecyl-4-(4-(4-methoxyphenyl)buta-1,3-dien-1-yl)pyridin-1-ium bromide]",0.13 ± 0.03,0.2 ± 0.04,760 nm and ~ 760 nm,530,"Stokes' shift, nm [3]: 352 nm"
"CCCCCCCCCCCC[n+]1ccc(C=Cc2cc3c4c(c2)CCCN4CCC3)cc1.[Br-] [Compound 6d, 1-dodecyl-4-(2-(2,3,6,7-tetrahydro-1H,5H-pyrido[3,2,1-ij]quinolin-9-yl)vinyl)pyridin-1-ium bromide]",0.05 ± 0.003,1.4 ± 0.3,660 nm,530,times higher cytotoxicity towards MH-22A than compound 7a ([1]; 6d versus 7a): 80 times
"CCCCCCCCCCCCCCCC[n+]1ccc(C=CC=Cc2cc3c4c(c2)CCCN4CCC3)cc1.[Br-] [Compound 6e, 1-hexadecyl-4-(4-(2,3,6,7-tetrahydro-1H,5H-pyrido[3,2,1-ij]quinolin-9-yl)buta-1,3-dien-1-yl)pyridin-1-ium bromide]",0.4 ± 0.06,1 ± 0.03,760 nm and ~ 760 nm,530,"times more toxic to MH-22A than against non-cancerous Hek-293 ([1]; selectivity MH-22A versus Hek-293): 3.75 times; times more cytotoxic to MH-22A than against non-cancerous NIH3T3 ([1]; selectivity MH-22A versus NIH3T3): eight; times higher cytotoxicity towards HT-1080 than 6d ([2]; 6e versus 6d): 1.4 times; Stokes' shift, nm [3]: 240 nm; second fluorescence maximum ([3]; EtOH-glycerol mixture, ethanol approximately 50%): 720 nm; fluorescence emission maximum wavelength ([3]; pure glycerol): 645 nm"
C(=C\c1cc2c3c(c1)CCCN3CCC2)/c1cc[n+](CCC[n+]2ccc(/C=C/c3cc4c5c(c3)CCCN5CCC4)cc2)cc1 [Compound 7a],,,660 nm,530,"IC50 ([1]; 72 h): 4 ± 0.3 µg/mL; IC50 ([2]; HT-1080, 72 h): 2 ± 0.3 µg/mL"
"C(C=Cc1cc2c3c(c1)CCCN3CCC2)=Cc1cc[n+](CCC[n+]2ccc(C=CC=Cc3cc4c5c(c3)CCCN5CCC4)cc2)cc1.[Br-].[Br-] [Compound 7b, 1,1′-(propane-1,3-diyl)bis(4-(4-(2,3,6,7-tetrahydro-1H,5H-pyrido[3,2,1-ij]quinolin-9-yl)buta-1,3-dien-1-yl)pyridin-1-ium) dibromide]",5 ± 0.6,6 ± 0.2,770 nm and ~ 760 nm,530,
